According to patent US20170008928A1, “NOVEL PEPTIDES AND PEPTIDE DERIVATIVES AND USES THEREOF” (Novo Nordisk A/S, priority 2015, published 2017):
Read-outs that look alike come from different tables or passages of the source. Starred links: 1 amine or outer side, 2 acyl side, 3 side chain; linkers in the order of their positions; H or OH if unused. Non-standard residues stand in square brackets, D forms with d. Residues, ends and D or L forms follow the SMILES beside them. *: point of attachment. Phe(4-CH2SO3H) = N[C@@H](Cc1ccc(CS(=O)(=O)O)cc1)C(=O)O; C18 diacid = O=C(O)CCCCCCCCCCCCCCCCC(=O)*; γGlu = O=C(O)[C@H](CCC(=O)[*:2])N[*:1]; NMeF = CN[C@@H](Cc1ccccc1)C(=O)O; dNMeD = CN[C@H](CC(=O)O)C(=O)O; Nle = CCCC[C@H](N)C(=O)O; AEEA = NCCOCCOCC(=O)O

Test: Plasma exposure after the last dose in DIO mini-pigs
Format: in vivo, Göttingen mini-pigs
Settings: for AUC(0-t): Göttingen, minipig, plasma, sc, read-out: AUCexposure (0-24 h) after last dose
Description: The CCK derivative was dissolved in the following buffer: 8 mM phosphate, 184 mM propylene glycol, 58 mM phenol, pH 7.4 concentrations ranging from 2000-10000 nmol/mL corresponding to dose volumes ranging from 0.00075-0.001 mL/kg. Liraglutide was dissolved in 8 mM phosphate, 184 mM propylenglycol, 58 mM phenol, pH 8.15 (1600 nmol/mL), dose volume was 0.001 mL/kg and this formulation also served as a vehicle for all 3 treatment groups. Animals were dosed subcutaneously once daily with vehicle, CCK derivative, liraglutide, or liraglutide in combination with the CCK derivative (given as two separate injections in each side of the neck). After the last dose blood samples were obtained in EDTA coated tubes at selected time points for up to 480 hours after dosing. Blood was sampled through central-venous catheters implanted under general anaesthesia after 11 weeks of treatment.
The resulting plasma was pipetted into Micronic tubes on dry ice, and kept at −20° C. until analysed for plasma exposure of liraglutide and the CCK derivative. Plasma content of the CCK derivative was measured using LC-MS method II, as described in Example 93. Plasma content of liraglutide was measured using LOCI (Luminescence Oxygen Channeling Immunoasssay). LOCI is generally described for the determination of insulin by Poulsen and Jensen in Journal of Biomolecular Screening 2007, vol. 12, p. 240-247. The donor beads were coated with streptavidin, while acceptor beads were conjugated with a monoclonal antibody recognising a C-terminal epitope of the peptide. Another monoclonal antibody, specific for the N-terminus, was biotinylated. The three reactants were combined with the analyte and formed a two-sited immuno-complex. Illumination of the complex released singlet oxygen atoms from the donor beads, which were channelled into the acceptor beads and triggered chemiluminescence which was measured in an Envision plate reader. The amount of light was proportional to the concentration of the compound.

For CCCC[C@H](NC(=O)[C@H](Cc1ccc(CS(=O)(=O)O)cc1)NC(=O)[C@H](CC(=O)O)NC(=O)COCCOCCNC(=O)COCCOCCNC(=O)CC[C@H](NC(=O)CCCCCCCCCCCCCCCCC(=O)O)C(=O)O)C(=O)NCC(=O)N[C@@H](Cc1c[nH]c2ccccc12)C(=O)N[C@@H](CCCC)C(=O)N(C)[C@H](CC(=O)O)C(=O)N(C)[C@@H](Cc1ccccc1)C(N)=O [Example 3, 2-[2-[2-[[2-[2-[2-[[(4S)-4-Carboxy-4-(17-carboxyheptadecanoylamino)butanoyl]amino]ethoxy]ethoxy]acetyl]amino]ethoxy]ethoxy]acetyl-Asp-Phe(4-sulfomethyl)-Nle-Gly-Trp-Nle-DMeAsp-MePhe-amide] ({C18 diacid-γGlu-AEEA-AEEA}-D[Phe(4-CH2SO3H)][Nle]GW[Nle][dNMeD][NMeF]-NH2), the AUC(0-t) (CCK derivative high dose group (10 nmol/kg)) was 27.1 µM·h, the AUC(0-t) (CCK derivative low dose group) was 4.2 µM·h and the “AUCexposure (0-24 h) after last dose, CCK derivative” value (combination group, CCK derivative […] on top of liraglutide) was “derivative: 3332000 pM*h”.
